Reference: patent publication US8748417B2, “Amino-pyrrolidine-azetidine diamides as monoacylglycerol lipase inhibitors” (Janssen Pharmaceutica, NV, priority 2010, dated 2014)
pIC50: −log10 of the molar value.

Target: T1, purified wild type MGL (wt-MGLL 6H-11-313) (Homo sapiens, UniProt Q99685)
T1 construct: purified wild type MGL (wt-MGLL 6H-11-313)
T1 sequence (Q99685 1-303): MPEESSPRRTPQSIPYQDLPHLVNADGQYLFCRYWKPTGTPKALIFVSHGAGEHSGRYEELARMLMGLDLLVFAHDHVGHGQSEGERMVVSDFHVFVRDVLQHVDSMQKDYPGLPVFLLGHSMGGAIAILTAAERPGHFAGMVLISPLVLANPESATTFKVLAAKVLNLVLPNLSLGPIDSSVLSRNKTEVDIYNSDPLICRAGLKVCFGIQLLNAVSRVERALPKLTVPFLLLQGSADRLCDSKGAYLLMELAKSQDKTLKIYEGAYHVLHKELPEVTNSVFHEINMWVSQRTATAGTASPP
Assay: MGL enzyme activity assay (4MU-B cleavage), wild type MGL
Type: biochemical
Settings: wild type MGL 5 nM, 4MU-B 10 μM, 37° C.; read-out: MGL wild type inh IC50
Experimental: All rate-based assays were performed in black 384-well polypropylene PCR microplates (Abgene) in a total volume of 30 μL. Substrate 4-methylumbelliferyl butyrate (4MU-B; Sigma) and either purified mutant MGL (mut-MGLL 11-313 L179S L186S) or purified wild type MGL (wt-MGLL 6H-11-313) were diluted separately into 20 mM PIPES buffer (pH=7.0), containing 150 mM NaCl and 0.001% Tween 20. Compounds of Formula (I) were pre-dispensed (50 nL) into the assay plate using a Cartesian Hummingbird prior to adding 4MU-B (25 μL of 1.2× solution to a final concentration of 10 μM) followed by enzyme (5 μL of a 6× solution to a final concentration of 5 nM) to initiate the reaction. Final compound concentrations ranged from 17 to 0.0003 μM. The fluorescence change due to 4MU-B cleavage was monitored with excitation and emission wavelengths of 335 and 440 nm, respectively, and a bandwidth of 10 nm (Safire^2, Tecan) at 37° C. for 5 min.
The IC50 values for the following compounds were determined using Microsoft Office Excel from a fit of the equation to the concentration-response plot of the fractional activity as a function of inhibitor concentration.

In the case of `O=C(c1ccccc1)N1CC[C@H](NC2CN(C(=O)c3sc4cc(C(F)(F)F)ccc4c3-c3ccccc3)C2)C1` [Cpd 74, (3S)-1-(Phenylcarbonyl)-N-(1-{[3-phenyl-6-(trifluoromethyl)-1-benzothiophen-2-yl]carbonyl}azetidin-3-yl)pyrrolidin-3-amine], the pIC50 was 6.56.
With `O=C(c1ccccc1)N1CC[C@H](NC2CN(C(=O)c3sc4cc(C(F)(F)F)ccc4c3C3CC3)C2)C1` [Cpd 75, (3S)-N-(1-{[3-Cyclopropyl-6-(trifluoromethyl)-1-benzothiophen-2-yl]carbonyl}azetidin-3-yl)-1-(phenylcarbonyl)pyrrolidin-3-amine] the pIC50 was 6.68.
`O=C(c1ccccc1)N1CC[C@H](NC2CN(C(=O)c3sc4cc(F)ccc4c3C3CCC3)C2)C1` [Cpd 79, (3S)-N-{1-[(3-Cyclobutyl-6-fluoro-1-benzothiophen-2-yl)carbonyl]azetidin-3-yl}-1-(phenylcarbonyl)pyrrolidin-3-amine] gave a pIC50 of 6.55.
`Cc1c(C(=O)N2CC(N(C=O)[C@H]3CCN(C(=O)c4ccccc4)C3)C2)sc2ccc(Cl)cc12` [Cpd 81, N-[1-[(5-Chloro-3-methyl-1-benzothiophen-2-yl)carbonyl]azetidin-3-yl]-N-[(3S)-1-(phenylcarbonyl)pyrrolidin-3-yl]formamide] gave a pIC50 of 5.31.
`Cc1c(C(=O)N2CC(N(C=O)[C@H]3CCN(C(=O)c4nccs4)C3)C2)sc2ccc(Cl)cc12` [Cpd 82, N-{1-[(5-Chloro-3-methyl-1-benzothiophen-2-yl)carbonyl]azetidin-3-yl}-N-[(3S)-1-(1,3-thiazol-2-ylcarbonyl)pyrrolidin-3-yl]formamide] was tested, and the pIC50 was 6.64.
In the case of `Cc1c(C(=O)N2CC(N(C=O)[C@H]3CCN(C(=O)c4cscn4)C3)C2)sc2ccc(Cl)cc12` [Cpd 83, N-{1-[(5-Chloro-3-methyl-1-benzothiophen-2-yl)carbonyl]azetidin-3-yl}-N-[(3S)-1-(1,3-thiazol-4-ylcarbonyl)pyrrolidin-3-yl]formamide], the pIC50 was 5.61.
Work on `Cc1c(C(=O)N2CC(N[C@H]3CCN(C(=O)c4ccccc4)C3)C2)sc2cc(F)ccc12` [Cpd 86, (3S)-N-{1-[(6-Fluoro-3-methyl-1-benzothiophen-2-yl)carbonyl]azetidin-3-yl}-1-(phenylcarbonyl)pyrrolidin-3-amine] yielded a pIC50 of 6.53.
`Cc1c(C(=O)N2CC(N[C@H]3CCN(C(=O)c4cscn4)C3)C2)sc2cc(F)ccc12` [Cpd 88, (3S)-N-{1-[(6-Fluoro-3-methyl-1-benzothiophen-2-yl)carbonyl]azetidin-3-yl}-1-(1,3-thiazol-4-ylcarbonyl)pyrrolidin-3-amine] gave a pIC50 of 6.82.
Molecule `O=C(c1ccccc1)N1CC[C@H](NC2CN(C(=O)c3sc4cc(C(F)(F)F)ccc4c3F)C2)C1` [Cpd 89, (3S)-N-(1-{[3-Fluoro-6-(trifluoromethyl)-1-benzothiophen-2-yl]carbonyl}azetidin-3-yl)-1-(phenylcarbonyl)pyrrolidin-3-amine] has a pIC50 of 6.81.
In the case of `Cc1c(C(=O)N2CC(N[C@H]3CCN(C(=O)c4nccs4)C3)C2)sc2ccc(-c3ccc(C(F)(F)F)cc3)cc12` [Cpd 91, (3S)-N-[1-({3-Methyl-5-[4-(trifluoromethyl)phenyl]-1-benzothiophen-2-yl}carbonyl)azetidin-3-yl]-1-(1,3-thiazol-2-ylcarbonyl)pyrrolidin-3-amine], the pIC50 was greater than 8.30.
`O=C(c1cc2ccc(Br)cc2s1)N1CC(N[C@H]2CCN(C(=O)c3nccs3)C2)C1` [Cpd 95, (3S)-N-{1-[(6-Bromo-1-benzothiophen-2-yl)carbonyl]azetidin-3-yl}-1-(1,3-thiazol-2-ylcarbonyl)pyrrolidin-3-amine] showed a pIC50 of 6.39.
For `O=C(c1cscn1)N1CC[C@H](NC2CN(C(=O)c3cc4ccc(Br)cc4s3)C2)C1` [Cpd 96, (3S)-N-{1-[(6-Bromo-1-benzothiophen-2-yl)carbonyl]azetidin-3-yl}-1-(1,3-thiazol-4-ylcarbonyl)pyrrolidin-3-amine], the pIC50 was 5.98.
`O=C(c1cc2cc(Br)ccc2s1)N1CC(N[C@H]2CCN(C(=O)c3nccs3)C2)C1` [Cpd 97, (3S)-N-{1-[(5-Bromo-1-benzothiophen-2-yl)carbonyl]azetidin-3-yl}-1-(1,3-thiazol-2-ylcarbonyl)pyrrolidin-3-amine] gave a pIC50 of 6.88.
`O=C(c1cscn1)N1CC[C@H](NC2CN(C(=O)c3cc4cc(Br)ccc4s3)C2)C1` [Cpd 98, (3S)-N-{1-[(5-Bromo-1-benzothiophen-2-yl)carbonyl]azetidin-3-yl}-1-(1,3-thiazol-4-ylcarbonyl)pyrrolidin-3-amine] showed a pIC50 of 5.51.
`O=C(c1ccccc1)N1CC[C@H](NC2CN(C(=O)c3cc4cc(Br)ccc4o3)C2)C1` [Cpd 107, (3S)-N-{1-[(5-Bromo-1-benzofuran-2-yl)carbonyl]azetidin-3-yl}-1-(phenylcarbonyl)pyrrolidin-3-amine] gave a pIC50 of less than 4.78.
Work on `O=C(c1ccc2c(-c3ccccc3)ncnc2c1)N1CC(N[C@H]2CCN(C(=O)c3ccccc3)C2)C1` [Cpd 108, (3S)-1-(Phenylcarbonyl)-N-{1-[(4-phenylquinazolin-7-yl)carbonyl]azetidin-3-yl}pyrrolidin-3-amine] yielded a pIC50 of 5.99.
`O=C(c1ccc2c(-c3ccc(C(F)(F)F)cc3)ncnc2c1)N1CC(N[C@H]2CCN(C(=O)c3ccccc3)C2)C1` [Cpd 109, (3S)-1-(Phenylcarbonyl)-N-[1-({4-[4-(trifluoromethyl)phenyl]quinazolin-7-yl}carbonyl)azetidin-3-yl]pyrrolidin-3-amine] was tested, and the pIC50 was 6.07.
With `O=C(c1ccc2c(-c3ccccc3)ncnc2c1)N1CC(N[C@H]2CCN(C(=O)c3nccs3)C2)C1` [Cpd 110, (3S)-N-{1-[(4-Phenylquinazolin-7-yl)carbonyl]azetidin-3-yl}-1-(1,3-thiazol-2-ylcarbonyl)pyrrolidin-3-amine] the pIC50 was 6.51.
`O=C(c1ccc2c(-c3ccc(C(F)(F)F)cc3)ncnc2c1)N1CC(N[C@H]2CCN(C(=O)c3nccs3)C2)C1` [Cpd 111, (3S)-1-(1,3-Thiazol-2-ylcarbonyl)-N-[1-({4-[4-(trifluoromethyl)phenyl]quinazolin-7-yl}carbonyl)azetidin-3-yl]pyrrolidin-3-amine] showed a pIC50 of 6.75.
`O=C(c1ccc2c(-c3ccccc3)ncnc2c1)N1CC(N[C@H]2CCN(C(=O)c3cscn3)C2)C1` [Cpd 112, (3S)-N-{1-[(4-Phenylquinazolin-7-yl)carbonyl]azetidin-3-yl}-1-(1,3-thiazol-4-ylcarbonyl)pyrrolidin-3-amine] was tested, and the pIC50 was 5.78.
For `O=C(c1ccc2c(cnn2-c2ccccc2)c1)N1CC(N[C@H]2CCN(C(=O)c3nccs3)C2)C1` [Cpd 120, (3S)-N-{1-[(1-Phenyl-1H-indazol-5-yl)carbonyl]azetidin-3-yl}-1-(1,3-thiazol-2-ylcarbonyl)pyrrolidin-3-amine], the pIC50 was 6.43.
In the case of `O=C(c1ccccc1)N1CC[C@H](NC2CN(C(=O)c3cc4cc(-c5ccccc5)ccc4o3)C2)C1` [Cpd 121, (3S)-N-{1-[(5-Phenyl-1-benzofuran-2-yl)carbonyl]azetidin-3-yl}-1-(phenylcarbonyl)pyrrolidin-3-amine], the pIC50 was 5.76.
`Cc1c(C(=O)N2CC(N[C@H]3CCN(C(=O)c4cscn4)C3)C2)sc2ccc(-c3cccc(C(F)(F)F)c3)cc12` [Cpd 125, (3S)-N-[1-({3-Methyl-5-[3-(trifluoromethyl)phenyl]-1-benzothiophen-2-yl}carbonyl)azetidin-3-yl]-1-(1,3-thiazol-4-ylcarbonyl)pyrrolidin-3-amine] gave a pIC50 greater than 8.30.
